From patent US20200261470A1, “COMBINATION TREATMENT WITH ANTIBODY-DRUG CONJUGATES AND PARP INHIBITORS” (IMMUNOGEN, INC., priority 2016, published 2020)

What was measured:
HL60 cells = assay: Proliferation measured with WST-8 reagent, HL60 cells; format: cell-based; conditions: Homo sapiens, HL-60; HL60 cell line, single agent; read-out: IC50 values for PARP inhibitors in AML cell lines
Protocol: (§1) Proliferation was measured following incubation with WST-8 reagent. Synergistic/additive effects were calculated using Compusyn software at varying drug concentrations. Flow cytometry for apoptosis, viability, DNA damage/repair, and cell cycle effects following combination versus single drug treatment were also performed.

HEL-luc cells = assay: Proliferation measured with WST-8 reagent, HEL-luc cells; format: cell-based, human; conditions: for IC50: Homo sapiens, HELluc cell line, single agent, read-out: IC50 values for PARP inhibitors in AML cell lines
Protocol: as §1

[1] = system: human CD33+ AML (HEL-luciferase) xenografts; format: in vivo; conditions: IMGN779 15 mcg/kg, olaparib 100 mg/kg, alone or combined
Protocol: In these experiments, stably transfected luciferase-positive human AML cells (HEL) characterized by high hCD33 expression levels were injected via tail vein into sublethally irradiated 6-8 week old SCID mice. […] In vivo systemic leukemia disease burden was evaluated weekly by small animal bioluminescent imaging. Toxicity was determined by clinical examination and weight measurements throughout the experiment. Overall study endpoints were (a) time to overall morbidity/mortality and/or (b) change in leukemia disease burden as compared with vehicle-treated mice or mice treated with single agent therapy. […] Simple stastical analyses will be performed utilizing the Stat Prism statistical software.

HEL cells = assay: Cell death after DNA-damaging radiation exposure in the presence of olaparib; format: cell-based, human; conditions: graded concentrations of olaparib; 0.5 Gy and 0.75 Gy radiation
[2] = system: Human CD33+ AML cell lines (HEL, MV4-11, and HL60); assay: Proliferation by WST-8 reagent with Compusyn synergy analysis, CD33+ AML cell lines; conditions: single agent, all CD33+ human AML cell lines tested
Protocol: Proliferation was measured by WST-8 reagent. Synergistic/additive effects were calculated using Compusyn software. Flow cytometry was performed to assess apoptosis, cell viability, and cell cycle effects.

CNCc1ccc(-c2[nH]c3cc(F)cc4c3c2CCNC4=O)cc1 [Rucaparib, rucaparib]
IC50 (HL60 cells): 75 µM | IC50 (HEL-luc cells): 39 µM

O=C(c1cc(Cc2n[nH]c(=O)c3ccccc23)ccc1F)N1CCN(C(=O)C2CC2)CC1 [Olaparib, olaparib]
median overall survival from inoculation [1]: 33.7 days | cell death after DNA-damaging radiation exposure (HEL cells): correlation in increase cell death and apoptosis with the increase in concentration of olaparib | IC50 (HL60 cells): 8.9 µM | growth inhibition in vitro [2]: dose-dependent grown inhibition | IC50 (HEL-luc cells): 7.4 µM

Cn1ncnc1[C@H]1c2n[nH]c(=O)c3cc(F)cc(c23)N[C@@H]1c1ccc(F)cc1 [Talazoparib, talazoparib]
IC50 (HL60 cells): 0.2 µM | relative potency among PARP inhibitors (HEL-luc cells; HEL-luc and HL60 cell lines): most potent PARP inhibitor | IC50 (HEL-luc cells): 0.4 µM | surviving fraction of cells (HEL-luc cells; PARP inhibitor 0.8 μM, IMGN779 800 pM, compared with olaparib and niraparib): greatest decrease in surviving fraction of cells

NC(=O)c1cccc2cn(-c3ccc([C@@H]4CCCNC4)cc3)nc12 [Niraparib, niraparib]
IC50 (HL60 cells): 2.5 µM | IC50 (HEL-luc cells): 7.3 µM

C[C@]1(c2nc3c(C(N)=O)cccc3[nH]2)CCCN1 [Vellparib, veliparib]
IC50 (HL60 cells): 88 µM | IC50 (HEL-luc cells): > 100 µM
